“And” between values parts separate entries of the source, which are not always exact repeats. Equal values may be shown once. Read-outs that look alike come from different tables or passages of the source. Square brackets hold non-standard residues; d marks the D form. Peptide text beside a SMILES is read from it. * marks the point of attachment. AMC = Cc1cc(=O)oc2cc(N*)ccc12; Nle = CCCC[C@H](N)C(=O)O; Bz = O=C(c1ccccc1)*
Key:
N2B-NS3 protease of WNV = details: cited from earlier work
[1] = test system: NS2B/NS3 protease of DEN2; details: cited from earlier work
JEV NS2B(H)-NS3pro [2] = molecular target: T1, JEV NS2B(H)-NS3pro (Japanese encephalitis virus, UniProt P32886, DEL1469-1493); experiment: Enzymatic activity assay with fluorogenic peptide substrates (Michaelis-Menten kinetics); format: biochemical; details: JEV protease
T1 construct: PCR-amplify the NS2B(H) region (amino acids 51–95 and 121–131); The N-terminal one-third (180 residues) of NS3 represents the protease domain NS3(pro); made in house; host or cells: E. coli (the text names both C41 and BL21), vector pTrcHisA

WNV NS3 protease = details: cited from earlier work
JEV NS2B(H)-NS3pro [3] = experiment: Enzyme inhibition by aprotinin, Pyr-RTKR-amc substrate; format: biochemical, Japanese encephalitis virus; details: 0.5 µM enzyme, 50 mM Tris-HCl pH 9.5, 20% glycerol, aprotinin 0-20 µM, 37°C 30 minutes pre-incubation, 10 µM Pyr-RTKR-amc, triplicate
DEN2 NS3 protease = details: cited from earlier work
MVEV NS2B-NS3 = details: cited from earlier work
[4] = test system: dengue virus NS3 protease; details: 100 mM NaCl; cited from earlier work
JEV NS2B(H)-NS3pro [5] = details: 25 mM NaCl; 100 µM Pyr-RTKR-amc, 0.5 µM enzyme, 50 mM Tris-HCl pH 9.5, 37°C
NS2B/NS3 protease of YFV = details: cited from earlier work

Pyr-RTKR-amc
K m (N2B-NS3 protease of WNV): 71 µM | k cat (N2B-NS3 protease of WNV): 6.3 s⁻¹ | k cat/K m (N2B-NS3 protease of WNV): 88000 M⁻¹ s⁻¹ | k cat [1]: 0.02 s⁻¹ and 0.013 s⁻¹

CCCC[C@H](NC(=O)c1ccccc1)C(=O)N[C@@H](CCCCN)C(=O)N[C@@H](CCCNC(=N)N)C(=O)N[C@@H](CCCNC(=N)N)C(=O)Nc1ccc2c(C)cc(=O)oc2c1 [Bz-nKRR-amc] (Bz-[Nle]KRR-{AMC})
fold higher k cat/K m of benzoyl compared to acetyl group (Ac-nKRR-amc) (JEV NS2B(H)-NS3pro [2]): approximately 1.4 fold

aprotinin
Ki (WNV NS3 protease; WNV NS3 protease): 162 nM | Ki (WNV NS3 protease; non-cleavable form of WNV NS2B-NS3pro): 26 nM | IC50 (JEV NS2B(H)-NS3pro [3]): 4130 ± 170 nM | Ki (DEN2 NS3 protease): 26 nM | IC50 (MVEV NS2B-NS3): ~8000 nM and 7800 nM

[Cl-].[Na+] [NaCl]
inhibition of the dengue virus NS3 protease [4]: 40–50% | inhibition of cleavage of Pyr-RTKR-amc (JEV NS2B(H)-NS3pro [5]): about 50%

Cc1cc(=O)oc2cc(NC(=O)[C@H](CCCNC(=N)N)NC(=O)[C@H](CCCNC(=N)N)NC(=O)CNC(=O)OC(C)(C)C)ccc12 [Boc-GRR-amc]
K m (NS2B/NS3 protease of YFV): 142 µM | k cat (NS2B/NS3 protease of YFV): 0.034 s⁻¹ | fold higher K m than Boc-LRR-amc (JEV NS2B(H)-NS3pro [2]): 3 fold | fold higher catalytic efficiency than Boc-LRR-amc (JEV NS2B(H)-NS3pro [2]): about 10 fold | K m [1]: 150 µM | k cat [1]: 0.13 s⁻¹

Abz-(R)4SAGnY-amide
k cat/K m [1]: 11087 M⁻¹ s⁻¹

Source: paper PMC3352935, “Enzymatic Analysis of Recombinant Japanese Encephalitis Virus NS2B(H)-NS3pro Protease with Fluorogenic Model Peptide Substrates” (PLoS ONE, 2012)
